According to patent EP0423524A2, “Propiophenone derivatives and their preparation and pharmaceutical use” (MARUHO Co., Ltd., priority 1989, dated 1991):
Structures can show the parent of a compound that is named as a salt.

Legend:
Assay type in all cases: in vivo
Male Slc-ddy mice [1] = experiment: Inhibitory effect on the motor coordination (rotating rod test); conditions: for Inhibitory effect on motor coordination Effect: 300 - 600 mg/10 ml/kg oral, 30 min, compared with eperisone hydrochloride; for Inhibitory effect on motor coordination Durability / ED50 / inhibitory effect on the motor coordination compared with eperisone hydrochloride: oral; for ED50: Mus musculus, 0.5 h, rotating rod 30 min after administration, falling off within 60 s counted as positive, 95% confidence limit in brackets, read-out: ED₅₀ values for the inhibitory effect on the motor coordination
Description: Male Slc-ddy mice of 20 - 25 g (5 weeks old) were used in groups of 7 - 10. The test compounds were used dissolved or suspended in 0.5 % CMC or 0.5 % Tween 80 solution. Each test compound (300 - 600 mg/10 ml/kg) was orally administered to the mice, and after 30 min the mice were put on a 3-cm diameter rod rotating at a speed of 10 min⁻¹ in a direction opposite to the rotation direction, and the time of staying on it was measured to a maximum of 180 s. Those falling off of the rotating rod within 60 s were judged as having an inhibitory effect on the motor coordination and, with the number of cases as index, comparison was made with the reference compound (eperisone hydrochloride).
The mice were trained in advance to be able to stay on the rotating rod for more than 300 s, and those capable of staying on it for more than 250 s immediately before testing were used.

Male Slc-ddy mice [2] = experiment: Anti-nicotinic effect (survival after intravenous nicotine bitartrate); conditions: for Anti-nicotinic effect Effect / anti-nicotinic effect compared with eperisone hydrochloride: 100 mg/10 ml/kg oral; for Anti-nicotinic effect Effect: 30 min, compared with eperisone hydrochloride; for ED50: Mus musculus, 0.5 h, oral, nicotine bitartrate 3 mg/10 ml/kg i.v. after 30 min, Litchfield-Wilcoxon, 95 % confidence limit in brackets, read-out: ED₅₀ values for the anti-nicotinic effect
Description: Experimental Method of Male Slc-ddy mice/30 - 35 g (6 weeks old) were used as test animals in groups of 7 - 10. The test compounds (100 mg/10 ml/kg) were orally administered to the mice, and after 30 min, nicotine bitartrate (3 mg/10 ml/kg) was administered intravenously, and the number of animals killed due to tonic convulsion was counted. The surviving animals were judged as having an anti-nicotinic effect, and with the number thereof as index the comparison concerning the anti-nicotinic effect was made with the reference compound (eperisone hydrochloride).

Male Slc-ddy mice [3] = experiment: Anti-strychnine effect (time from tonic convulsions to death after subcutaneous strychnine nitrate); conditions: for Anti-strychnine effect Effect / anti-strychnine effect compared with eperisone hydrochloride: mice, 100 mg/10 ml/kg oral; for Anti-strychnine effect Effect: 30 min, compared with eperisone hydrochloride; for ED50: Mus musculus, po, 0.5 h, read-out: ED₅₀ values for the anti-strychnine effect
Description: Strychnine is known to enhance reflex stimulation, among others, of spinal cord to induce convulsions. If this effect of strychnine can be suppressed by administration of any of the above-mentioned compounds, this compound is expected to have a central muscle relaxation effect.
Male Slc-ddy mice of 25 - 30 g (5 weeks old) were used in groups of 7 - 10.
The test compounds (100 mg/10 ml/kg) were orally administered to the mice, and after 30 min, 1.5 mg/10 ml/kg of strychnine nitrate was administered subcutaneously, and the time was measured from the occurence of tonic convulsions to the death of the animals. Cases in which this time was extended to 6 min or more were judged as corresponding to an anti-strychnine effect, and with the number of such cases as index, comparison was made with the reference compound (eperisone hydrochloride). […] The ED₅₀ values (95% confidence limit) for the anti-strychnine effect were determined by the Litchfield-Wilcoxon method and are shown in Table 3.

Acute toxicity test = conditions: mouse, in vivo, po, mice, observation for 7 days, Litchfield-Wilcoxon, 95% confidence limit in brackets, read-out: LD₅₀ values (50% of lethal dose)
Description: Male ddy mice of 20-30 g were used as test animals in groups of 5-10. The test compounds were dissolved or suspended in 0.5 % Tween 80 aqueous solution, and orally administered to the mice. Observation was made for 7 days after administration. The LD₅₀ values (50% of lethal dose) (95% confidence limit) were determined by the Litchfield-Wilconxon method, and are shown in Table 4.

| SMILES | Inhibitory effect on motor coordination Effect (Male Slc-ddy mice [1]) | Inhibitory effect on motor coordination Durability (Male Slc-ddy mice [1]) | Anti-nicotinic effect Effect (Male Slc-ddy mice [2]) | also measured |
| --- | --- | --- | --- | --- |
| Cc1ccc(C(=O)C(C)Cn2ccnc2)c(C)c1.Cl (stereo not drawn) [Compound 13, 3-(1H-imidazol-1-yl)-2-methyl-1-(2,4-dimethylphenyl)-propan-1-one hydrochloride] | 0 | - | ◎ |  |
| CC(Cn1ccnc1)C(=O)c1ccc(C(C)(C)C)cc1 (stereo not drawn) [Compound 11, 1-(4-t-butylphenyl)-3-(1H-imidazol-1-yl)-2-methylpropan-1-one] | 0 |  |  | Anti-strychnine effect Effect (Male Slc-ddy mice [3]): 0 |
| Cc1ccc(C(=O)C(C)Cn2ccnc2)cc1C (stereo not drawn) [Compound 14, 3-(1H-imidazol-1-yl)-2-methyl-1-(3,4-dimethylphenyl)-propan-1-one] | 0 |  | ◎ | ED50 (Male Slc-ddy mice [3]): 33 mg/kg; anti-strychnine effect compared with eperisone hydrochloride (Male Slc-ddy mice [3]): stronger anti-strychnine effect than eperisone hydrochloride; Anti-strychnine effect Effect (Male Slc-ddy mice [3]): ◎; ED50 (Male Slc-ddy mice [1]): 100 mg/kg; inhibitory effect on the motor coordination compared with eperisone hydrochloride (Male Slc-ddy mice [1]): stronger inhibitory effect on the motor coordination than eperisone hydrochloride; LD50 at 168 h (Acute toxicity test): 209 mg/kg; anti-nicotinic effect compared with eperisone hydrochloride (Male Slc-ddy mice [2]): stronger anti-nicotinic effect than eperisone hydrochloride; ED50 (Male Slc-ddy mice [2]): 32 mg/kg |
| CCc1ccc(C(=O)C(Cn2ccnc2)c2ccccc2)cc1 (stereo not drawn) [Compound 19, 1-(4-ethylphenyl)-3-(1H-imidazol-1-yl)-2-phenylpropan-1-one] | ◎ | - | ◎ |  |
| CCc1ccc(C(=O)C(CN2CCCCC2)C(C)C)cc1 (stereo not drawn) [Compound 5, 1-(4-ethylphenyl)-2-isopropyl-3-piperidinopropan-1-one] | 0 | - | 0 |  |
| CC(C)(CN1CCCC1)C(=O)c1ccc(Cl)cc1 [Compound 25, 1-(4-chlorophenyl)-2,2-dimethyl-3-(pyrrolidin-1-yl)-propan-1-one] | ◎ |  | ○ |  |
| CCc1ccc(C(=O)C(CC)Cn2ccnc2)cc1.Cl (stereo not drawn) [Compound 18, 2-ethyl-1-(4-ethylphenyl)-3-(1H-imidazol-1-yl)-propan-1-one hydrochloride] | ◎ |  | ◎ |  |
| Cc1ccc(C(=O)C(C)Cn2ccnc2)cc1 (stereo not drawn) [Compound 16, 3-(1H-imidazol-1-yl)-2-methyl-1-(4-methylphenyl)-propan-1-one] | ◎ |  | ◎ |  |
| CCc1ccc(C(=O)C(CC)CN2CCCCC2)cc1.Cl (stereo not drawn) [Compound 4, 2-ethyl-1-(4-ethylphenyl)-3-piperidinopropan-1-one hydrochloride] | 0 | - | 0 |  |
| CCc1ccc(C(=O)C(C)n2ccnc2)cc1.Cl (stereo not drawn) [Compound 21, 1-(4-ethylphenyl)-2-(1H-imidazol-1-yl)-propan-1-one hydrochloride] |  | - | ◎ |  |
| CCc1ccc(C(=O)C(C)Cn2ccnc2)cc1 (stereo not drawn) [Compound 2, 1-(4-ethylphenyl)-3-(1H-imidazol-1-yl)-2-methylpropan-1-one] | 0 |  | ◎ | ED50 (Male Slc-ddy mice [3]): 135 mg/kg; anti-strychnine effect compared with eperisone hydrochloride (Male Slc-ddy mice [3]): stronger anti-strychnine effect than eperisone hydrochloride; Anti-strychnine effect Effect (Male Slc-ddy mice [3]): ◎; ED50 (Male Slc-ddy mice [1]): 200 mg/kg; inhibitory effect on the motor coordination compared with eperisone hydrochloride (Male Slc-ddy mice [1]): stronger inhibitory effect on the motor coordination than eperisone hydrochloride; LD50 at 168 h (Acute toxicity test): 218 mg/kg; anti-nicotinic effect compared with eperisone hydrochloride (Male Slc-ddy mice [2]): stronger anti-nicotinic effect than eperisone hydrochloride; ED50 (Male Slc-ddy mice [2]): 26 mg/kg |
| CCc1ccc(C(=O)C(C)CN2CCN(CC(C)C(=O)c3ccc(CC)cc3)CC2)cc1.Cl.Cl (stereo not drawn) [Compound 1, N,N'-bis[2-(4-ethylbenzoyl)-propyl]-piperazine dihydrochloride] | 0 | - |  |  |
| CCc1ccc(C2(C(C)Cn3ccnc3)OCCO2)cc1 (stereo not drawn) [Compound 23] | ◎ |  | ◎ | ED50 (Male Slc-ddy mice [3]): 155 mg/kg; anti-strychnine effect compared with eperisone hydrochloride (Male Slc-ddy mice [3]): stronger anti-strychnine effect than eperisone hydrochloride; Anti-strychnine effect Effect (Male Slc-ddy mice [3]): ○; ED50 (Male Slc-ddy mice [1]): 210 mg/kg; inhibitory effect on the motor coordination compared with eperisone hydrochloride (Male Slc-ddy mice [1]): stronger inhibitory effect on the motor coordination than eperisone hydrochloride; LD50 at 168 h (Acute toxicity test): 415 mg/kg; anti-nicotinic effect compared with eperisone hydrochloride (Male Slc-ddy mice [2]): stronger anti-nicotinic effect than eperisone hydrochloride; ED50 (Male Slc-ddy mice [2]): 46 mg/kg |
| CCc1ccc(C(=O)C(C)Cn2ccnc2C)cc1 (stereo not drawn) [Compound 26, 1-(4-ethylphenyl)-2-methyl-3-(2-methyl-1H-imidazol-1-yl)-propan-1-one] | ◎ | - | ◎ |  |
| CCCc1ccc(C(=O)C(C)Cn2ccnc2)cc1 (stereo not drawn) [Compound 9, 3-(1H-imidazol-1-yl)-2-methyl-1-(4-n-propylphenyl)-propan-1-one] | 0 |  | ◎ |  |
| CC(Cn1ccnc1)C(=O)c1ccc2ccccc2c1 (stereo not drawn) [Compound 15, 3-(1H-imidazol-1-yl)-2-methyl-1-(2-naphthyl)-propan-1-one] | 0 | - | ◎ | Anti-strychnine effect Effect (Male Slc-ddy mice [3]): ◎; ED50 (Male Slc-ddy mice [1]): 152 mg/kg; inhibitory effect on the motor coordination compared with eperisone hydrochloride (Male Slc-ddy mice [1]): stronger inhibitory effect on the motor coordination than eperisone hydrochloride |
| CCc1ccc(C(=O)C(C)Cn2cncn2)cc1 (stereo not drawn) [Compound 27, 1-(4-ethylphenyl)-2-methyl-3-(1H-1,2,4-triazol-1-yl)-propan-1-one] | ○ | - | ○ |  |
| CCc1ccc(C(=O)C(CN2CCCC2)c2ccccc2)cc1.Cl (stereo not drawn) [Compound 24, 1-(4-ethylphenyl)-2-phenyl-3-(pyrrolidin-1-yl)-propan-1-one hydrochloride] | ○ |  | ○ |  |
| CC(Cn1ccnc1)C(=O)c1ccc(-c2ccccc2)cc1 (stereo not drawn) [Compound 12, 1-(4-biphenyl)-3-(1H-imidazol-1-yl)-2-methylpropan-1-one] |  | - | ◎ |  |
| CC(Cn1ccnc1)C(=O)c1ccccc1 (stereo not drawn) [Compound 8, 3-(1H-imidazol-1-yl)-2-methyl-1-phenyl-propan-1-one] | 0 |  |  |  |
| CCc1ccc(C(O)C(C)Cn2ccnc2)cc1 (stereo not drawn) [Compound 22, 1-(4-ethylphenyl)-3-(1H-imidazol-1-yl)-2-methylpropan-1-ol] | ◎ |  | ◎ | Anti-strychnine effect Effect (Male Slc-ddy mice [3]): ○; inhibitory effect on the motor coordination compared with eperisone hydrochloride (Male Slc-ddy mice [1]): stronger inhibitory effect on the motor coordination than eperisone hydrochloride |
| CC(Cn1ccnc1)C(=O)c1ccc(C(C)C)cc1 (stereo not drawn) [Compound 10, 3-(1H-imidazol-1-yl)-1-(4-isopropylphenyl)-2-methylpropan-1-one] | 0 |  | 0 |  |
| CCc1ccc(C(=O)CCn2ccnc2)cc1 [Compound 17, 1-(4-ethylphenyl)-3-(1H-imidazol-1-yl)-propan-1-one] | ○ | - | ○ |  |
| CCc1ccc(C(=O)C(CN2CCCCC2)c2ccccc2)cc1.Cl (stereo not drawn) [Compound 7, 1-(4-ethylphenyl)-2-phenyl-3-piperidinopropan-1-one hydrochloride] | 0 | - | 0 |  |
| CC(Cn1ccnc1)C(=O)c1ccc2c(c1)Cc1ccccc1-2 (stereo not drawn) [Compound 20, 1-(9H-fluoren-2-yl)-3-(1H-imidazol-1-yl)-2-methylpropan-1-one] | ◎ | - | ◎ | Anti-strychnine effect Effect (Male Slc-ddy mice [3]): ○ |
| CC(Cn1ccnc1)C(=O)c1ccc(Cl)cc1 (stereo not drawn) [Compound 3, hydrochloride] | 0 |  | 0 |  |
| CCc1ccc(C(=O)C(C)(C)CN2CCCCC2)cc1 [Compound 6, 1-(4-ethylphenyl)-2,2-dimethyl-3-piperidinopropan-1-one] | ◎ |  | 0 |  |
